Experimental data published in PubChem BioAssay (NCI).
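Cultured in 96-well plates, cells were exposed to test compound for 48 hours across five concentrations. Definition used: TGI = concentration required for complete inhibition of growth.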

Tests used:
Test in all cases: NCI tumour cell line growth inhibition, 48 h
NCI-H226 lung = system: NCI-H226 lung
M19-MEL melanoma = system: M19-MEL melanoma
SR leukemia = system: SR leukemia
SF-268 CNS = system: SF-268 CNS
SF-295 CNS = system: SF-295 CNS
DLD-1 colon = system: DLD-1 colon
OVCAR-5 ovarian = system: OVCAR-5 ovarian
786-0 renal = system: 786-0 renal
SK-MEL-2 melanoma = system: SK-MEL-2 melanoma
EKVX NSCLC = system: EKVX NSCLC
HOP-18 NSCLC = system: HOP-18 NSCLC
XF 498 CNS = system: XF 498 CNS
MALME-3M melanoma = system: MALME-3M melanoma
NCI-H460 lung = system: NCI-H460 lung
OVCAR-8 ovarian = system: OVCAR-8 ovarian
KM20L2 colon = system: KM20L2 colon
CAKI-1 renal = system: CAKI-1 renal
SK-MEL-28 melanoma = system: SK-MEL-28 melanoma
K-562 leukemia = system: K-562 leukemia
KM12 colon = system: KM12 colon
SNB-19 CNS = system: SNB-19 CNS
SF-539 CNS = system: SF-539 CNS
UACC-257 melanoma = system: UACC-257 melanoma
NCI-H522 lung = system: NCI-H522 lung
UACC-62 melanoma = system: UACC-62 melanoma
SNB-75 CNS = system: SNB-75 CNS
IGROV1 ovarian = system: IGROV1 ovarian
SW-620 colon = system: SW-620 colon
UO-31 renal = system: UO-31 renal
RPMI-8226 leukemia = system: RPMI-8226 leukemia
SK-OV-3 ovarian = system: SK-OV-3 ovarian
DMS 273 small cell lung = system: DMS 273 small cell lung
DMS 114 small cell lung = system: DMS 114 small cell lung
COLO 205 colon = system: COLO 205 colon
OVCAR-4 ovarian = system: OVCAR-4 ovarian
A549 NSCLC = system: A549 NSCLC
HT29 colon = system: HT29 colon
HCT-15 colon = system: HCT-15 colon
HCC-2998 colon = system: HCC-2998 colon
CCRF-CEM leukemia = system: CCRF-CEM leukemia
SK-MEL-5 melanoma = system: SK-MEL-5 melanoma
MOLT-4 leukemia = system: MOLT-4 leukemia
LOX IMVI melanoma = system: LOX IMVI melanoma
OVCAR-3 ovarian = system: OVCAR-3 ovarian
NCI-H23 lung = system: NCI-H23 lung
HOP-62 NSCLC = system: HOP-62 NSCLC
U251 CNS = system: U251 CNS
SN12C renal = system: SN12C renal
M14 melanoma = system: M14 melanoma
LXFL 529 NSCLC = system: LXFL 529 NSCLC

Measured: TGI

CCO/S(=N/S(=O)(=O)c1ccccc1)c1ccccc1[N+](=O)[O-] (stereo not given)
> 100 µM: all assays above
